{
  "source": "paper PMC2120320",
  "about": "(The Journal of Cell Biology, 1994)",
  "key": {"[1]": {"tested_on": "dynein-driven microtubule sliding in spoke-deficient axonemes", "assay": "Microtubule sliding velocity in spoke-deficient axonemes", "type": "biochemical, Chlamydomonas reinhardtii", "details": "for effect on velocity of microtubule sliding: spoke-deficient mutants (pf14, pf17)"}, "[2]": {"biological_target": "cyclic nucleotide-dependent kinases", "details": "inhibition of cyclic nucleotide-dependent kinases; ref Hidaka et al., 1984; cited from earlier work"}, "[3]": {"biological_target": "protein kinase C", "details": "ref Hidaka et al., 1984; cited from earlier work"}, "[4]": {"tested_on": "dynein-driven microtubule sliding in wild-type 137c axonemes", "assay": "Microtubule sliding velocity in wild-type", "type": "biochemical, Chlamydomonas reinhardtii"}, "[5]": {"biological_target": "myosin light chain kinase", "details": "ref Hidaka et al., 1984; cited from earlier work"}, "[6]": {"tested_on": "catalytic subunit of cAPK", "details": "demembranated rat sperm; ref Horowitz et al., 1984; cited from earlier work"}, "[7]": {"biological_target": "PKI-sensitive kinase activity", "details": "demembranated ram sperm, treatment with cAMP; ref San Agustin and Witman, 1994; cited from earlier work"}, "[8]": {"tested_on": "dynein-driven microtubule sliding in pf14 axonemes", "assay": "Microtubule sliding velocity in isolated pf14 axonemes", "type": "biochemical, Chlamydomonas reinhardtii", "details": "pf14, 10 μM cAMP alone (Fig. 4), mean from 20 measurements"}, "[9]": {"tested_on": "pf17 axonemes", "assay": "In vitro reactivation of beating of pf17 axonemes", "type": "biochemical, Chlamydomonas reinhardtii", "details": "pf17 axonemes with PKI, preliminary experiments"}, "[10]": {"tested_on": "dynein-driven microtubule sliding in pf17 axonemes", "assay": "Microtubule sliding velocity in isolated pf17 axonemes", "type": "biochemical, Chlamydomonas reinhardtii"}, "[11]": {"tested_on": "inner arm dyneins", "type": "biochemical, Chlamydomonas reinhardtii"}, "[12]": {"biological_target": "cAMP-dependent protein kinase (cAPK)", "details": "ref Glass et al., cited from earlier work"}, "[13]": {"tested_on": "dynein-driven microtubule sliding in pf18 axonemes", "assay": "Microtubule sliding velocity in pf18 axonemes", "type": "biochemical, Chlamydomonas reinhardtii", "details": "pf18, 100 nM PKI; Habermacher, G., unpublished results"}, "[14]": {"tested_on": "dynein-driven microtubule sliding in pf14pf28 axonemes", "assay": "Microtubule sliding velocity in pf14pf28 axonemes", "type": "biochemical, Chlamydomonas reinhardtii"}},
  "data": [
    {"compound": "CC1CNCCN1S(=O)(=O)c1cccc2cnccc12", "note": "(centres unmarked) [H-7]", "values": [
      {"measurement": "effect on sliding velocity", "setting": "[1]; H-7, spoke-deficient axonemes, data not shown", "value": "increases"},
      {"measurement": "effect on velocity of microtubule sliding", "setting": "[1]", "value": "increased to wild-type level"}
    ]},
    {"compound": "Cl.N=C(N)NCCNS(=O)(=O)c1cccc2cnccc12", "note": "[HA-1004, N-(2-guanidinoethyl)-5-isoquinolinesulfonamide hydrochloride]", "values": [
      {"measurement": "Ki", "setting": "[2]", "value": "1 to 3", "unit": "µM"},
      {"measurement": "Ki", "setting": "[3]", "value": 40, "unit": "µM"},
      {"measurement": "effect on microtubule sliding velocity", "setting": "[4]; wild-type, 15 μM HA-1004, not shown", "value": "had no effect"},
      {"measurement": "dose dependence of sliding velocity stimulation", "setting": "[1]; spoke-deficient axonemes", "value": "dose dependent"},
      {"measurement": "effect on velocity of microtubule sliding", "setting": "[1]", "value": "increased to wild-type level"},
      {"measurement": "Ki", "setting": "[5]", "value": 150, "unit": "µM"}
    ]},
    {"compound": "Nc1ncnc2c1ncn2[C@@H]1O[C@@H]2COP(=O)(O)O[C@H]2[C@H]1O", "note": "[cAMP]", "values": [
      {"measurement": "release of catalytic activity", "setting": "[6]", "value": "releases most of the catalytic activity"},
      {"measurement": "PKI-sensitive kinase activity remaining bound after cAMP", "setting": "[7]", "value": "≤ 50", "unit": "%"},
      {"measurement": "effect on microtubule sliding velocity", "setting": "[8]", "value": "had no effect"},
      {"measurement": "effect on RII-induced increase in sliding", "setting": "[1]; 10 μM cAMP added to spokeless axonemes reconstituted with RII", "value": "reversed the effect of RII"}
    ]},
    {"compound": "RII: regulatory subunit of bovine cardiac type II cAPK (Promega)", "values": [
      {"measurement": "effect of RII on microtubule sliding", "setting": "[1]; spoke-deficient axonemes, type-II regulatory subunit of cAPK", "value": "increased microtubule sliding to wild-type velocity"}
    ]},
    {"compound": "Thr-Tyr-Ala-Asp-Phe-Ile-Ala- Ser-Gly-Arg-Thr-Gly-A_rg-Arg-Aan-Ala-Ile-NH2 [PKI, PKI(6-22)amide]", "values": [
      {"measurement": "reactivation of in vitro beating", "setting": "[9]", "value": "unable to reactivate"},
      {"measurement": "effect on microtubule sliding velocity", "setting": "[4]; wild-type 137c, 0-200 nM PKI (Fig. 2b)", "value": "did not affect"},
      {"measurement": "dose dependence of sliding velocity stimulation", "setting": "[1]; spoke-deficient axonemes", "value": "dose-dependent"},
      {"measurement": "effect on velocity of microtubule sliding", "setting": "[1]", "value": "increased to wild-type level"},
      {"measurement": "efficacy of PKI versus NAcPKI", "setting": "[10]; pf17, 100 nM (Fig. 2a)", "value": "no detectable difference"},
      {"measurement": "effect on microtubule sliding velocity", "setting": "[10]; pf17, 100 nM peptide (Fig. 2a), PKI and NAcPKI P < 0.01 vs control or triAlaPKI", "value": "significantly increased"},
      {"measurement": "sliding velocity with control dynein on extracted PKI-treated axonemes (PKIAxos)", "setting": "[11]; pf14pf28, 100 nM PKI (Fig. 6), two experiments pooled", "value": "only slow"},
      {"measurement": "sliding velocity of PKI-treated axonemes before extraction vs control axonemes", "setting": "[11]; pf14pf28, 100 nM PKI, Pre-Extr (Fig. 6), P < 0.05", "value": "significantly greater"},
      {"measurement": "Ki", "setting": "[12]; inhibition of cAPK, 1989", "value": "0.0016 to 0.0025", "unit": "µM"},
      {"measurement": "specificity of cAPK inhibition", "setting": "[12]; 1986", "value": "high degree of specificity"},
      {"measurement": "effect on velocity of microtubule sliding", "setting": "[13]", "value": "significantly increased to wild-type levels"},
      {"measurement": "effect on microtubule sliding velocity", "setting": "[14]; pf14pf28, 100 nM PKI (Fig. 5), P < 0.001", "value": "significantly increased"},
      {"measurement": "effect on microtubule sliding vs pf28 control velocity", "setting": "[14]; pf14pf28, PKI", "value": "increased microtubule sliding to control (pf28) velocity"}
    ]}
  ]
}
